“Also recorded” adds a separate entry of the source. Marks after values point to notes of the source that are not given here.
What was measured:
isolated portal veins = experiment: Contractile tension of isolated portal veins; set-up: species or system Male Wistar rats; settings: for Effect of agonist on contractile tension of isolated portal vein: cumulative concentrations, 3 minutes each, agonist alone; for Effect of antagonist on 5-HT induced contraction of isolated portal vein: pre-incubation with antagonist for 20 minutes before 5-HT; for Effect of antagonist on 8-OH-DPAT induced contraction of isolated portal vein: pre-incubation with antagonist for 20 minutes before 8-OH-DPAT; for Effect of antagonist on F11440 induced contraction of isolated portal vein: pre-incubation with antagonist for 20 minutes before F11440
Description: Effects of the selective agonist and antagonist of HTR1A on contractile tension of isolated portal vein.
1) Male Wistar rats, weighting 140 g to 160 g, were anesthetized with inhalational isopentane through a mask. The portal veins were gently isolated from the animals and 3-5 mm of the vessel was removed under the anatomical microscope from the connective tissue, and then the vessel was placed in a cold Tyrode solution (NaCl: 148.9, KCl: 2.7, CaCl2: 1.8, NaPO4H2: 0.2, NaCO3H: 11.9, MgCl2: 1.2, glucose: 5.5 mM). Isolated portal veins were mounted in 20 ml jacketed tissue baths containing the appropriate Tyrode solution (37±0.5° C., PH=7.4) constantly bubbled with O2, by suspending them between two L-shaped stainless-steel hooks. The lower hooks were fixed and the upper hooks were attached to force-displacement transducers. Isometric force was measured and recorded using the ALC-MPA software associated with the equipment.
2) A pre-load of 1 g was applied. After mounting, isolated portal veins were equilibrated for […]. The contractile response to depolarizing potassium solution was then assessed as a test for viability. The depolarizing KCl solution (80 mM) had the same composition as the Tyrode solution used, except for the NaCl that had been completely replaced by an equimolar amount of KCl. The iPVs were washed with Tyrode solution four times and re-equilibrated for another […].
3) To evaluate the effects of 5-HT or HTR1A agonist on the contraction of iPVs, serotonin or selective agonist of HTR1A (8-OH-DPAT and F11440) was directly administrated into the tissue baths for 3 minutes in cumulatively concentrations, and the magnitude of contractile tension was recorded. To evaluate the effects of HTR1A antagonist, a pre-incubation with selective antagonist of HTR1A (WAY 100635 and NAD 299) for 20 minutes was used before increasing administration of 5-HT or HTR1A agonist.
4) 5-HT, selective agonist of HTR1A (8-OH-DPAT and F11440), and selective antagonist of HTR1A (WAY 100635 and NAD 299) were purchased from Sigma, Selleck, Tocris, and TargetMol, respectively.

[1] = test system: cirrhotic portal hypertensive rats induced by carbon tetrachloride (CCl4); experiment: Portal pressure in cirrhotic portal hypertensive rats induced by CCl4, agonist 8-OH-DPAT (Example 3); type: in vivo, Male Wistar rats; settings: CCl4 model
Description: (§1) 1) Self-made portal pressure measuring kit, which contains 24-Gauge scalp vein set (Y type) and catheter, and high-sensitive pressure sensor, biological signal processing system (SMUP-U, Jide experimental teaching equipment factory, Shanghai, China) were used to measure the portal pressure in rats.
(§2) 2) Connect all the catheters and device, check the tightness and set zero, then open the portal pressure measuring kit, connect the catheter with the scalp vein set and high-sensitive pressure sensor, following the connection between pressure sensor and biological signal processing system. Fill all the catheters with heparin sodium saline (volume of heparin sodium and saline: 1.25 WU: 500 ml), eliminate the air bubbles and close the catheter. Then remove the needle in the scalp vein set, place it horizontally at the portal vein height of the rat (supine position). The zero point was set after opening the catheter in the biological collection system software.
3) Rats were anesthetized with inhalational isopentane through a mask. A midline abdominal incision was made, and the portal vein was cannulated with a 24-Gauge scalp vein set, connecting with a catheter filled heparin-saline, to measure PP. […]
4) After one-week treatment, portal pressure of all the rats were measured and rats were sacrificed for liver tissues. […]

[2] = test system: cirrhotic portal hypertensive rats induced by thioacetamide (TAA); experiment: Portal pressure in cirrhotic portal hypertensive rats induced by thioacetamide (TAA); type: in vivo, Male Wistar rats; settings: TAA model; for Effect on portal pressure / Portal pressure: WAY 100635 1 mg/kg i.p.; for Effect on portal pressure: alverine 15 mg/kg by gavage, once per day; for Portal pressure: alverine 15 mg/kg p.o., means ±SEM; for Portal pressure / Effect on portal pressure compared with carvedilol: carvedilol 10 mg/kg p.o.; for Portal pressure / Change of portal pressure vs. Vehicle: once per day for one week; for Change of portal pressure vs. Vehicle: same dosing
Description: Effects of the selective antagonist of HTR1A WAY 100635, and alverine on portal pressure (PP) in cirrhotic portal hypertensive rats induced by thioacetamide (TAA).
Male Wistar rats, weighting about 140 to 160 grams (g) each, were purchased from SLAC Laboratory Animal Co., Ltd (Shanghai, China) and housed under standard animal laboratory conditions in the experimental animal center of Second Military Medical University (Shanghai, China). All animal experiments in this study were performed in accordance with protocols approved by the local Ethical Committee of the Second Military Medical University.
1) Thirty-five male Wistar rats, weighting 140 g to 160 g, were randomly divided into normal control group (N=8) and TAA group (N=27). Rats in TAA group were subjected to intraperitoneally (i.p.) injections of TAA (purchase from […]) at 200 mg/kg, which is diluted in sterile normal saline (NS; 0.9% sodium chloride), 3 times per week for 16 weeks to induce cirrhotic portal hypertension. The normal controls received injections of NS at the same timepoint. At the beginning of the 17th week, rats in TAA group were randomly divided into four groups: Vehicle group (N=7), Alverine group (N=7), WAY 100635 group (N=7), and carvedilol group (N=6).
2) Alverine (purchase from TargetMol) was diluted in the saline at a concentration of 5 mg/ml and delivered to the rats in Alverine group via gavage (p.o.). WAY 100635 (purchase from Selleck) was diluted in sterile normal saline at a concentration of 1 mg/ml and peritoneally injected (i.p.) into the rats in WAY 100635 group. Carvedilol (purchase from TargetMol) was diluted in sterile normal saline at a concentration of 1 mg/ml and delivered to the rats in carvedilol group via gavage.
3) Rats in the Alverine group, WAY 100635 group, and carvedilol group were received alverine 15 mg/kg p.o.+saline i.p., saline p.o.+WAY 100635 1 mg/kg i.p., carvedilol 10 mg/kg p.o.+saline i.p., respectively once per day for one week, while rats in vehicle group received saline p.o. and saline i.p. at the same timepoint.
4) After one-week treatment, portal pressure of all the rats were measured and rats were sacrificed for liver tissues.
as §1, §2
3) Rats were anesthetized with inhalational isopentane through a mask. A midline abdominal incision was made, and the portal vein was cannulated with a 24-Gauge scalp vein set, connecting with a catheter filled heparin-saline, to measure PP.
Data were presented as the means ±SEM. One-way analysis of variance (ANOVA) and student's t-tests were performed to compare data between two groups, and a P value of less than 0.05 was considered statistically significant.

[3] = test system: cirrhotic portal hypertensive rats induced by carbon tetrachloride (CCl4); experiment: Portal pressure in cirrhotic portal hypertensive rats induced by carbon tetrachloride (CCl4), antagonists (Example 2); type: in vivo, Male Wistar rats; settings: CCl4 model; for Effect on portal pressure / Portal pressure: WAY 100635 1 mg/kg i.p.; for Effect on portal pressure: alverine 15 mg/kg by gavage, once per day; for Portal pressure: alverine 15 mg/kg p.o., means ±SEM; for Portal pressure / Effect on portal pressure compared with carvedilol: carvedilol 10 mg/kg p.o.; for Portal pressure / Change of portal pressure vs. Vehicle: once per day for one week; for Change of portal pressure vs. Vehicle: same dosing
Description: 1) Self-made portal pressure measuring kit, which contains 24-Gauge scalp vein set (Y type) and catheter, and high-sensitive pressure sensor, biological signal processing system (SMUP-U, Jide experimental teaching equipment factory, Shanghai, China) were used to measure the portal pressure in rats. 2) Connect all the catheters and device, check the tightness and set zero, then open the portal pressure measuring kit, connect the catheter with the scalp vein set and high-sensitive pressure sensor, following the connection between pressure sensor and biological signal processing system. Fill all the catheters with heparin sodium saline (volume of heparin sodium and saline: 1.25 WU: 500 ml), eliminate the air bubbles and close the catheter. Then remove the needle in the scalp vein set, place it horizontally at the portal vein height of the rat (supine position). The zero point was set after opening the catheter in the biological collection system software. 3) Rats were anesthetized with inhalational isopentane through a mask. A midline abdominal incision was made, and the portal vein was cannulated with a 24-Gauge scalp vein set, connecting with a catheter filled heparin-saline, to measure PP. Effects of the selective antagonist of HTR1A WAY 100635, and alverine on portal pressure (PP) in cirrhotic portal hypertensive rats induced by carbon tetrachloride (CCl4). 1) Thirty-one male Wistar rats, weighting 140 g to 160 g, were randomly divided into normal control group (N=7) and CCl4 group (N=24). Rats in CCl4 group were subjected to intraperitoneally (i.p.) injections of CCl4 at 0.25 ml/kg (diluted 1:3 v/v in olive oil) twice per week for 12 weeks to induce cirrhotic portal hypertension, while the normal controls received injections of olive oil at the same timepoint. At the beginning of the eleventh week, rats in CCl4 group were randomly divided into four groups: Vehicle group (N=7), Alverine group (N=6), WAY 100635 group (N=5), and carvedilol group (N=6). 2) Alverine was diluted in sterile normal saline at a concentration of 5 mg/ml and delivered to the rats in Alverine group via gavage (p.o.). WAY 100635 was diluted in sterile normal saline at a concentration of 1 mg/ml and peritoneally injected (i.p.) into the rats in WAY 100635 group. Carvedilol was diluted in sterile normal saline at a concentration of 1 mg/ml and delivered to the rats in carvedilol group via gavage. 3) Rats in the Alverine group, WAY 100635 group, and carvedilol group were received alverine 15 mg/kg p.o.+saline i.p., saline p.o.+WAY 100635 1 mg/kg i.p., carvedilol 10 mg/kg p.o.+saline i.p., respectively once per day for one week, while rats in vehicle group received saline p.o. and saline i.p. at the same timepoint. 4) After one-week treatment, portal pressure of all the rats were measured and rats were sacrificed for liver tissues. Similar as that in embodiment example 1.

CCCN(CCC)C1CCc2cccc(O)c2C1 (stereo not shown) [8-OH-DPAT]
Effect of agonist on contractile tension of isolated portal vein (isolated portal veins): considerably increased the contractile force of iPVs in a concentration-dependent manner | Effect on portal pressure ([1]; 8-OH-DPAT 1 mg/kg i.p. once per day): increased; also recorded: significantly increase | Portal pressure ([1]; 8-OH-DPAT 1 mg/kg i.p. once per day for one week, means ±SEM): 11.66 ± 1.89 cmH2O

NC(=O)c1ccc(F)c2c1C[C@@H](N(C1CCC1)C1CCC1)CO2 [NAD 299]
Effect of antagonist on 5-HT induced contraction of isolated portal vein (isolated portal veins): abrogated | Effect of antagonist on 8-OH-DPAT induced contraction of isolated portal vein (isolated portal veins): almost completely inhibited | Effect of antagonist on F11440 induced contraction of isolated portal vein (isolated portal veins): almost completely inhibited

CCN(CCCc1ccccc1)CCCc1ccccc1 [Alverine]
Effect on portal pressure [2]: significantly decreased | Portal pressure [2]: 12.98 ± 1.74 cmH2O | Effect on portal pressure compared with carvedilol [2]: not significantly different | Change of portal pressure vs. Vehicle [2]: (−38.39%^#, P < 0.0001) | Effect on portal pressure [3]: significantly decrease | Portal pressure [3]: 6.94 ± 0.98 cmH2O | Effect on portal pressure compared with carvedilol [3]: not significantly different | Change of portal pressure vs. Vehicle [3]: (−41.44%*, P = 0.0065)

COc1ccccc1OCCNCC(O)COc1cccc2[nH]c3ccccc3c12 (stereo not shown) [Carvedilol]
Portal pressure [2]: 14.01 ± 4.14 cmH2O | Change of portal pressure vs. Vehicle [2]: (−33.54%^#, P = 0.0025) | Portal pressure [3]: 7.99 ± 1.37 cmH2O | Change of portal pressure vs. Vehicle [3]: (−32.58%^#, P = 0.0200)

Cn1c(=O)cnn(CCCCN2CCN(c3ncccn3)CC2)c1=O [F11440]
Effect of agonist on contractile tension of isolated portal vein (isolated portal veins): considerably increased the contractile force of iPVs in a concentration-dependent manner

COc1ccccc1N1CCN(CCN(C(=O)C2CCCCC2)c2ccccn2)CC1 [WAY 100635]
Effect of antagonist on 5-HT induced contraction of isolated portal vein (isolated portal veins): abrogated | Effect of antagonist on 8-OH-DPAT induced contraction of isolated portal vein (isolated portal veins): almost completely inhibited | Effect of antagonist on F11440 induced contraction of isolated portal vein (isolated portal veins): almost completely inhibited | Effect on portal pressure [2]: significantly decreased | Portal pressure [2]: 13.27 ± 3.00 cmH2O | Effect on portal pressure compared with carvedilol [2]: not significantly different | Change of portal pressure vs. Vehicle [2]: (−37.04%^#, P = 0.0001) | Effect on portal pressure [3]: significantly decrease | Portal pressure [3]: 7.36 ± 2.14 cmH2O | Effect on portal pressure compared with carvedilol [3]: not significantly different | Change of portal pressure vs. Vehicle [3]: (−37.88%^#, P = 0.0125)

NCCc1c[nH]c2ccc(O)cc12 [5-HT, 5-hydroxytryptamine]
Effect of agonist on contractile tension of isolated portal vein (isolated portal veins): concentration-dependent contraction
